Experimental data from patent US20240158446A1, “CYCLIC COMPOUND HAVING SELECTIVE INHIBITORY ACTION ON KRAS OVER HRAS AND NRAS” (CHUGAI SEIYAKU KABUSHIKI KAISHA, priority 2021, published 2024).
Read-outs that look alike come from different tables or passages of the source.

Assays:
[1] = molecular target: GDP-bound NRAS wild-type protein (Homo sapiens, UniProt P01111); assay: Binding to NRAS by surface plasmon resonance (SPR), Single Cycle Kinetics; details: for NRAS/KRAS (ratio of KD value with respect to GDP-bound NRAS wild-type protein to KD value with respect to KRAS): SPR KD ratio NRAS/KRAS, class symbols; for NRAS/KRAS (ratio of KD value for NRAS to KD value for KRAS): GDP-bound NRAS wild-type protein vs GDP-bound KRAS wild-type protein
[2] = tested on: human lung cancer strain NCI-H441;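 note: cell proliferation inhibition after four days measured by CellTiter-Glo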
[3] = molecular target: GDP-bound KRAS wild-type protein (Homo sapiens, UniProt P01116); assay: Binding to KRAS by surface plasmon resonance (SPR), Single Cycle Kinetics
[4] = molecular target: GDP-bound HRAS wild-type protein (Homo sapiens, UniProt P01112); assay: Binding to HRAS by surface plasmon resonance (SPR), Single Cycle Kinetics; details: for HRAS/KRAS (ratio of KD value with respect to GDP-bound HRAS wild-type protein to KD value with respect to KRAS): SPR KD ratio HRAS/KRAS, class symbols; for HRAS/KRAS (ratio of KD value for HRAS to KD value for KRAS): GDP-bound HRAS wild-type protein vs GDP-bound KRAS wild-type protein
[5] = SPR Single Cycle Kinetics, GDP-bound KRAS wild-type protein, 1:1 binding model, read-out: KRAS KD
[6] = SPR, Single Cycle Kinetics, GDP-bound KRAS wild-type protein, read-out: KRAS KD
[7] = SPR, Single Cycle Kinetics, 1:1 binding model, GDP-bound KRAS wild-type protein, read-out: KRAS KD

Sequence of GDP-bound KRAS wild-type protein (P01116 whole entry): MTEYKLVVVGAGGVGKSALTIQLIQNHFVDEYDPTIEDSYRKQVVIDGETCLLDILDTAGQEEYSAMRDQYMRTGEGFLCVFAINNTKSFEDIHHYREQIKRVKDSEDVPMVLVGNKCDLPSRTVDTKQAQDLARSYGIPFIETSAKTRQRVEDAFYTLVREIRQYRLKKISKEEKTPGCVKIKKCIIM
Sequence of GDP-bound NRAS wild-type protein (P01111 whole entry): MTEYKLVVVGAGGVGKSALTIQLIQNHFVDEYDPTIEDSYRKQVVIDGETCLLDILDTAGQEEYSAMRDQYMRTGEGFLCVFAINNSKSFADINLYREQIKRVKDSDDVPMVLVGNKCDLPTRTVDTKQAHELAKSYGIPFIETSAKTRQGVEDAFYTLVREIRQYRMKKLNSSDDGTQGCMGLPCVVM
Sequence of GDP-bound HRAS wild-type protein (P01112 whole entry): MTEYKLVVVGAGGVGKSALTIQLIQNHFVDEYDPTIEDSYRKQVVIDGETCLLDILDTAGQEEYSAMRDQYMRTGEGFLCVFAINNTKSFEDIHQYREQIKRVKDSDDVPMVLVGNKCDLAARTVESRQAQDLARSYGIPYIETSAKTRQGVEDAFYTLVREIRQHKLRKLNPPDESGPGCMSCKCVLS

| SMILES | NRAS/KRAS (ratio of KD value with respect to GDP-bound NRAS wild-type protein to KD value with respect to KRAS) [1] | IC50 [2] | Kd [3, 5] | HRAS/KRAS (ratio of KD value with respect to GDP-bound HRAS wild-type protein to KD value with respect to KRAS) [4] | NRAS/KRAS (ratio of KD value for NRAS to KD value for KRAS) ([1]; SPR) | Kd [3, 6] | HRAS/KRAS (ratio of KD value for HRAS to KD value for KRAS) ([4]; SPR) | also measured |
| --- | --- | --- | --- | --- | --- | --- | --- | --- |
| CCO[C@@H]1C[C@H]2C(=O)NC3(CC(C)(C)C3)C(=O)N(C)[C@@H](C(CC)CC)C(=O)N(C)[C@H](C(=O)N3CCCCC3)CC(=O)N(C)[C@@H](COC)C(=O)N[C@@H]([C@@H](C)CC)C(=O)N(C)CC(=O)N(C)[C@H]3C/C=C\CCN(C3=O)[C@@H](Cc3ccc(C(F)(F)F)cc3)C(=O)N(C)CC(=O)N[C@@H](CCc3cc(F)c(C(F)(F)F)c(F)c3)C(=O)N2C1 [PP2606] | AA (a compound having 20 or more is denoted as AA) | 68.7 nM | 0.81 nM | AA (a compound having 20 or more is denoted as AA) | – | – | – | – |
| CCCO[C@H](C)[C@@H]1NC(=O)[C@H](COCC)N(C)C(=O)C[C@@H](C(=O)N(C)CC)N(C)C(=O)[C@H](C2CCCC2)N(C)C(=O)C2(CC(C)(C)C2)NC(=O)[C@@H]2C[C@H](C)CN2C(=O)[C@H](CCc2cc(F)c(C(F)(F)F)c(F)c2)NC(=O)CN(C)C(=O)[C@H](Cc2ccc(C)cc2)N2CC/C=C\C[C@@H](C2=O)N(C)C(=O)CN(C)C1=O [PP2426] | – | 48 nM | – | – | AA (a compound having 20 or more is denoted as AA) | 0.31 nM | A (a compound having 10 or more and less than 20 is denoted as A) | – |
| CCC[C@H]1C(=O)N[C@@H]([C@@H](C)CC)C(=O)N(C)CC(=O)N(C)[C@H]2C/C=C\CCN(C2=O)[C@@H](Cc2ccc(C(F)(F)F)cc2)C(=O)N(C)CC(=O)N[C@@H](CCc2cc(F)c(C(F)(F)F)c(F)c2)C(=O)N2C[C@H](OCC)C[C@H]2C(=O)N(C)C2(CCC2)C(=O)N(C)[C@@H](C2CCCC2)C(=O)N(C)[C@H](C(=O)N2CCCC2)CC(=O)N1C [PP3120, (2S,8S,12R,14S,20S,23S,27S,30S,36S,38Z)-20-cyclopentyl-8-[2-[3,5-difluoro-4-(trifluoromethyl)phenyl]ethyl]-12-ethoxy-4,16,19,22,26,32,35-heptamethyl-30-[(1S)-1-methylpropyl]-27-propyl-23-(pyrrolidine-1-carbonyl)-2-[[4-(trifluoromethyl)phenyl]methyl]spiro[1,4,7,10,16,19,22,26,29,32,35-undecazatricyclo[34.5.1.0^10,14]dotetracont-38-ene-17,1′-cyclobutane]-3,6,9,15,18,21,25,28,31,34,42-undecone] | – | – | – | – | AA (a compound having 20 or more is denoted as AA) | 0.052 nM | A (a compound having 10 or more and less than 20 is denoted as A) | ratio of the KD value with respect to GDP-bound NRAS wild-type protein to the KD value with respect to KRAS ([1]; SPR, KD(NRAS)/KD(KRAS)): AA (a compound having 20 or more is denoted as AA); IC50 ([2]; read-out: NCI-H441 cell proliferation inhibitory activity, 50% proliferation inhibitory concentration (IC50 value), NCI-H441, four days, CellTiter-Glo): 1.9 nM; Kd ([3]; SPR, Single Cycle Kinetics, 1:1 binding model, read-out: KD value with respect to GDP-bound KRAS wild-type protein): 0.052 nM; ratio of the KD value with respect to GDP-bound HRAS wild-type protein to the KD value with respect to KRAS ([4]; SPR, KD(HRAS)/KD(KRAS)): A (a compound having 10 or more and less than 20 is denoted as A) |
| CCO[C@@H]1C[C@H]2C(=O)NC3(CCC3)C(=O)N(C)[C@@H](C(CC)CC)C(=O)N(C)[C@H](C(=O)N(C)C)CC(=O)N(C)[C@@H](CC)C(=O)N[C@@H]([C@@H](C)CC)C(=O)N(C)CC(=O)N(C)[C@H]3C/C=C\CCN(C3=O)[C@@H](Cc3ccc(C(F)(F)F)cc3)C(=O)N(C)CC(=O)N[C@@H](CCc3ccc4sccc4c3)C(=O)N2C1 [PP1223] | – | 117 nM | – | – | – | – | – | NRAS/KRAS (ratio of KD value for NRAS to KD value for KRAS) ([1]; SPR, KD ratio class): AA (a compound having 20 or more is denoted as AA); Kd [3, 7]: 1.2 nM; HRAS/KRAS (ratio of KD value for HRAS to KD value for KRAS) ([4]; SPR, KD ratio class): A (a compound having 10 or more and less than 20 is denoted as A) |
| CCO[C@@H]1C[C@H]2C(=O)NC3(CCC3)C(=O)N(C)[C@@H](C3CCCC3)C(=O)N(C)[C@H](C(=O)N3CCCCC3)CC(=O)N(C)[C@@H](C)C(=O)N[C@@H]([C@@H](C)CC)C(=O)N(C)CC(=O)N(C)[C@H]3C/C=C\CCN(C3=O)[C@@H](Cc3ccc(C(F)(F)F)cc3)C(=O)N(C)CC(=O)N[C@@H](CCc3cc(F)c(C(F)(F)F)c(F)c3)C(=O)N2C1 [PP1292] | – | 24.6 nM | – | – | – | – | – | NRAS/KRAS (ratio of KD value for NRAS to KD value for KRAS) ([1]; SPR, KD ratio class): A (a compound having 10 or more and less than 20 is denoted as A); Kd [3, 7]: 0.16 nM; HRAS/KRAS (ratio of KD value for HRAS to KD value for KRAS) ([4]; SPR, KD ratio class): A (a compound having 10 or more and less than 20 is denoted as A) |
| CCCOC[C@H]1C(=O)N[C@@H]([C@@H](C)CC)C(=O)N(C)CC(=O)N(C)[C@H]2C/C=C\CCN(C2=O)[C@@H](Cc2ccc(C)cc2)C(=O)N(C)CC(=O)N[C@@H](CCc2ccc(C(F)(F)F)c(Cl)c2)C(=O)N2C[C@H](OCC)C[C@H]2C(=O)NC2(CC(C)(C)C2)C(=O)N(C)[C@@H](C2CCCC2)C(=O)N(C)[C@H](C(=O)N(C)CC)CC(=O)N1C [PP2469] | – | 15.7 nM | – | – | A (a compound having 10 or more and less than 20 is denoted as A) | 0.19 nM | B (a compound having 3 or more and less than 10 is denoted as B) | – |
| CCC[C@H]1C(=O)N[C@@H](CC(C)C)C(=O)N(CC)CC(=O)N(C)[C@H]2C/C=C\CCN(C2=O)[C@@H](Cc2ccc(C)cc2)C(=O)N(C)CC(=O)N[C@@H](CCc2ccc(C(F)(F)F)c(OC)c2)C(=O)N2C[C@H](OCC)C[C@H]2C(=O)NC2(CCC2)C(=O)N(C)[C@@H](C2CCCC2)C(=O)N(C)[C@H](C(=O)N(C)C)CC(=O)N1C [PP2540] | A (a compound having 10 or more and less than 20 is denoted as A) | 562 nM | 4.6 nM | B (a compound having 3 or more and less than 10 is denoted as B) | – | – | – | – |
| CCO[C@@H]1C[C@H]2C(=O)NC3(CCC3)C(=O)N(C)[C@@H](C3CCCC3)C(=O)N(C)[C@H](C(=O)N(C)C)CC(=O)N(C)[C@@H](COC)C(=O)N[C@@H]([C@@H](C)CC)C(=O)N(C)CC(=O)N(C)[C@H]3CCCCCN(C3=O)[C@@H](Cc3ccc(F)cc3)C(=O)N(C)CC(=O)N[C@@H](CCc3cc(F)c(C(F)(F)F)c(F)c3)C(=O)N2C1 [PP1193] | – | 16.3 nM | – | – | B (a compound having 3 or more and less than 10 is denoted as B) | 0.07 nM | B (a compound having 3 or more and less than 10 is denoted as B) | – |
| CCO[C@@H]1C[C@H]2C(=O)NC3(CC(C)(C)C3)C(=O)N(C)[C@@H](C3CCCC3)C(=O)N(C)[C@H](C(=O)N(C)C)CC(=O)N(C)[C@@H](COC)C(=O)N[C@@H]([C@@H](C)CC)C(=O)N(C3CC3)CC(=O)N(C)[C@H]3C/C=C\CCN(C3=O)[C@@H](CC3CCCCC3)C(=O)N(C)CC(=O)N[C@@H](CCc3cc(F)c(C(F)(F)F)c(F)c3)C(=O)N2C1 [PP2562] | B (a compound having 3 or more and less than 10 is denoted as B) | 46.5 nM | 0.91 nM | B (a compound having 3 or more and less than 10 is denoted as B) | – | – | – | – |
